The results in this text go back to patent US8673938B2, “Chemical compounds” (priority 2006, dated 2014).

For the experiment, the target named is human 11βHSD1 enzyme (Homo sapiens (Human), UniProt P28845). In words: biochemical. As to conditions: read-out: % inhibition of human 11-βHSD.
Chain of human 11βHSD1 enzyme (P28845 whole entry): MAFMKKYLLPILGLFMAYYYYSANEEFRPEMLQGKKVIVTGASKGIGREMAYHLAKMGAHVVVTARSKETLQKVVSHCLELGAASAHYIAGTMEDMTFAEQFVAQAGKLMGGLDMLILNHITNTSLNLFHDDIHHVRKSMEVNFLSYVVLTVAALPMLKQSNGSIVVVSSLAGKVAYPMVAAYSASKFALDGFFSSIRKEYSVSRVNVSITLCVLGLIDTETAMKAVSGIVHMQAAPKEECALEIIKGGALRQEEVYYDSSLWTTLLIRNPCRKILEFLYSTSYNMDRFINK
Experimental: The evaluation of compounds described herein was carried out using a baculovirus expressed N terminal 6-His tagged full length human 11βHSD1 enzyme(*1). […] Inhibitors of 11βHSD1 reduce the conversion of cortisone to cortisol, which is identified by an increase in signal, in the above assay.
Compounds to be tested were dissolved in dimethyl sulphoxide (DMSO) to 10 mM and diluted further in assay buffer containing 1% DMSO to 10 fold the final assay concentration. Diluted compounds were then plated into black 384 well plates (Matrix, Hudson N.H., USA).
The assay plates were incubated for 25 minutes at 37° C. after which time the reaction was stopped by the addition of 10 μl of 0.5 mM glycerrhetinic acid plus conjugated cortisol (XL665 or D2). 10 μl of anti-cortisol Cryptate was then added and the plates sealed and incubated for 6 hours at room temperature.
Regarding `O=C(O)C[C@H]1CCN(c2ccc(C(=O)N[C@H]3C4CC5CC3C[C@](O)(C5)C4)c(SC3CCCCC3)n2)C1` [Example 100, 2-[(3R)-1-[6-cyclohexylsulfanyl-5-[((2r,5s)-5-hydroxy-2-adamantyl)carbamoyl]pyridin-2-yl]pyrrolidin-3-yl]acetic acid], the inhibition at 30 µM turned out to be 92%. Regarding `O=C(O)C[C@@H]1CCCN(c2ccc(C(=O)NC3CCCCC3)c(SCCc3cccnc3)n2)C1` [compound 131, 2-[(3S)-1-[5-(cyclohexyl-carbamoyl)-6-(2-pyridin-3-ylethylsulfanyl)pyridin-2-yl]-3-piperidyl] acetic acid], the inhibition at 30 µM worked out at 91%. With `CCCSc1nc(N2CCC(OCC(=O)O)C2)ccc1C(=O)NC1CCCCC1` (stereo not shown) [Example 43, 2-[1-[5-(cyclohexylcarbamoyl)-6-propylsulfanyl-pyridin-2-yl]pyrrolidin-3-yl]oxyacetic acid], the inhibition at 30 µM came out at 92%. For the molecule `CCCSc1nc(N2CCC[C@H]2C(=O)O)ccc1C(=O)NC1C2CC3CC(C2)CC1C3` (stereo partly drawn) [Example 65, (2S)-1-[5-(2-adamantylcarbamoyl)-6-propylsulfanyl-pyridin-2-yl]pyrrolidine-2-carboxylic acid], the inhibition at 30 µM stood at 89%.

Turning to `CC(C)CCSc1nc(N2CCC[C@@H](CC(=O)O)C2)ccc1C(=O)NC1C2CC3CC1CC(O)(C3)C2` (stereo partly drawn) [Example 104, 2-[(3S)-l-[5-[[(2r,5s)-5-hydroxy-2-adamantyl]carbamoyl)-6-(3-methylbutylsulfanyl)pyridin-2-yl]-3-piperidyl]acetic acid], the inhibition at 30 µM stood at 87%. The same measure for `CC(=O)N1CCN(c2nc(N3CCC[C@@H](CC(=O)O)C3)ccc2C(=O)NC2CCCCC2)CC1` [compound 147, 2-[(3S)-1-[6-(4-acetylpiperazin-1-yl)-5-(cyclohexylcarbamoyl)pyridin-2-yl]-3-piperidyl]acetic acid]: 86%; for `CCCSc1nc(N2CCC(C(=O)O)(C(C)C)CC2)ccc1C(=O)NC1CCCCC1` [Example 35, 4-[5-(cyclohexylcarbamoyl)-6-propylsulfanyl-pyridin-2-yl]-4-propan-2-yl-piperidine-4-carboxylic acid]: 93%. As to `O=C(O)C[C@H]1CCN(c2ccc(C(=O)NC3CCCCC3)c(SC3CCCCC3)n2)C1` [Example 57, 2-[(3R)-1-[5-(cyclohexylcarbamoyl)-6-cyclohexylsulfanyl-pyridin-2-yl]pyrrolidin-3-yl]acetic acid], the inhibition at 30 µM stood at 97%. As to `CN(CCc1ccccc1)c1nc(N2CCC[C@@H](CC(=O)O)C2)ccc1C(=O)NC1CCCCC1` [compound 153, 2-[(3S)-1-[5-(cyclohexylcarbamoyl)-6-(methyl-phenethyl-amino)pyridin-2-yl]-3-piperidyl]acetic acid], the inhibition at 30 µM stood at 92%. The same measure for `CCCSc1nc(N[C@H]2C3CC4CC2C[C@](C(=O)O)(C4)C3)ccc1C(=O)NC1CCCCC1` [Example 9, (3R,5S)-4-[[5-(cyclohexylcarbamoyl)-6-propylsulfanyl-pyridin-2-yl]amino]adamantane-1-carboxylic acid]: 92%. As to `CCCSc1nc(N2CCC[C@H](CC(=O)O)C2)ccc1C(=O)N[C@H]1C2CC3CC1C[C@@](O)(C3)C2` [Example 85, 2-[(3R)-1-[5-[[(2r,5s)-5-hydroxy-2-adamantyl]carbamoyl)-6-propylsulfanyl-pyridin-2-yl]-3-piperidyl]acetic acid], the inhibition at 30 µM was found to be 89%.

With `CCCSc1nc(N2CC[C@H](CC(=O)O)C2)ccc1C(=O)NC1C2CC3CC(C2)CC1C3` (stereo partly drawn) [Example 64, 2-[(3R)-1-[5-(2-adamantylcarbamoyl)-6-propylsulfanyl-pyridin-2-yl]pyrrolidin-3-yl]acetic acid], the inhibition at 30 µM came out at 89%. Regarding `O=C(O)C[C@@H]1CCCN(c2ccc(C(=O)NC3CCCCC3)c(N3CCCCC3)n2)C1` [compound 141, 2-[(3S)-1-[5-(cyclohexylcarbamoyl)-6-(1-piperidyl)pyridin-2-yl]-3-piperidyl]acetic acid], the inhibition at 30 µM stood at 96%. As for `CCCSc1nc(N2CC[C@@H](CC(=O)O)C2)ccc1C(=O)NC1C2CC3CC(C2)CC1C3` (stereo partly drawn) [Example 62, 2-[(3S)-1-[5-(2-adamantylcarbamoyl)-6-propylsulfanyl-pyridin-2-yl]pyrrolidin-3-yl]acetic acid], the inhibition at 30 µM came to 89%. With `CCSc1nc(N2CC[C@H](CC(=O)O)C2)ccc1C(=O)NC1C2CC3CC(C2)CC1C3` (stereo partly drawn) [Example 73, 2-[(3R)-1-[5-(2-adamantylcarbamoyl)-6-ethylsulfanyl-pyridin-2-yl]pyrrolidin-3-yl]acetic acid], the inhibition at 30 µM stood at 92%. The same measure for `CCCSc1nc(N2CC(OCC(=O)O)C2)ccc1C(=O)NC1CCCCC1` [Example 40, 2-[1-[5-(cyclohexylcarbamoyl)-6-propylsulfanyl-pyridin-2-yl]azetidin-3-yl]oxyacetic acid]: 87%; for `CCCSc1nc(N2CCC(C)(C(=O)O)CC2)ccc1C(=O)NC1CCCCC1` [Example 32, 1-[5-(cyclohexylcarbamoyl)-6-propylsulfanyl-pyridin-2-yl]-4-methyl-piperidine-4-carboxylic acid]: 89%. Take `CCCSc1nc(N2CCC[C@@H](CC(=O)O)C2)ccc1C(=O)N(CC1CC1)C1CCCCC1` [Example 122, 2-[(3S)-1-[5-(cyclohexyl-(cyclopropylmethyl)carbamoyl)-6-propylsulfanyl-pyridin-2-yl]-3-piperidyl]acetic acid]: the inhibition at 30 µM amounted to 88%. For `CCCSc1nc(N2CC[C@@H](CC(=O)O)C2)ccc1C(=O)N[C@H]1C2CC3CC1C[C@](OC(F)F)(C3)C2` [Example 180, 2-[(3S)-1-[5-[[(2r,5s)-5-(Difluoromethoxy)-2-adamantyl]carbamoyl]-6-propylsulfanyl-pyridin-2-yl]pyrrolidin-3-yl]acetic acid], the inhibition at 30 µM was 95%. Turning to `CCCSc1nc(N2CCC[C@@H](CC(=O)O)C2)ccc1C(=O)NC1CCOCC1` [Example 173], the inhibition at 30 µM worked out at 92%. Regarding `CCCSc1nc(Oc2ccc(OCC(=O)O)cc2)ccc1C(=O)NC1CCCCC1` [Example 20, 2-[4-[5-(cyclohexylcarbamoyl)-6-propylsulfanyl-pyridin-2-yl]oxyphenoxy]acetic acid], the inhibition at 30 µM amounted to 89%. Take `O=C(O)C[C@H]1CCCN(c2ccc(C(=O)NC3CCCCC3)c(SC3CCCCC3)n2)C1` [Example 58, 2-[(3R)-1-[5-(cyclohexylcarbamoyl)-6-cyclohexylsulfanyl-pyridin-2-yl]-3-piperidyl]acetic acid]: the inhibition at 30 µM came out at 83%. As to `CCCSc1nc(N2CCC[C@@H](CC(=O)O)C2)ccc1C(=O)N1CCC(C(N)=O)CC1` [Example 120, 2-[(3S)-1-[5-(4-carbamoylpiperidine-1-carbonyl)-6-propylsulfanyl-pyridin-2-yl]-3-piperidyl]acetic acid], the inhibition at 30 µM turned out to be 104%. `CCCSc1nc(N2CCC[C@@H](CC(=O)O)C2)ccc1C(=O)N1CCCC(C(F)(F)F)C1` (stereo partly drawn) [Example 118, 2-[(3S)-1-[6-propylsulfanyl-5-[3-(trifluoromethyl)-piperidine-1-carbonyl]pyridin-2-yl]-3-piperidyl]acetic acid]: the inhibition at 30 µM came out at 101%. As for `O=C(N[C@H]1C2CC3CC1C[C@](O)(C3)C2)c1ccc(N2CCC[C@H]2C(=O)O)nc1SC1CCCCC1` [Example 101, (2S)-1-[6-cyclohexylsulfanyl-5-[((2r,5s)-5-hydroxy-2-adamantyl)carbamoyl]pyridin-2-yl]pyrrolidine-2-carboxylic acid], the figure is 100%; as for `CCCSc1nc(N2CCC[C@H](CC(=O)O)C2)ccc1C(=O)N(C)C1CCCCC1` [Example 168, 2-[(3R)-1-[5-(Cyclohexyl-methyl-carbamoyl)-6-propylsulfanyl-pyridin-2-yl]-3-piperidyl]acetic acid], 108%.

Turning to `CCCSc1nc(N2CCC[C@@H](CC(=O)O)C2)ccc1C(=O)NC1C2CC3CC(C2)CC1C3` (stereo partly drawn) [Example 59, 2-[(3S)-1-[5-(2-adamantylcarbamoyl)-6-propylsulfanyl-pyridin-2-yl]-3-piperidyl]acetic acid], the inhibition at 30 µM stood at 94%. The same measure for `O=C(O)C[C@H]1CCCN(c2ccc(C(=O)NC3CCCCC3)c(SCCc3ccccc3)n2)C1` [Example 129, 2-[(3R)-1-[5-(cyclohexylcarbamoyl)-6-phenethylsulfanyl-pyridin-2-yl]-3-piperidyl]acetic acid]: 82%. As to `CCCSc1nc(N2C[C@@H]3[C@H](C2)[C@H]3C(=O)O)ccc1C(=O)NC1C2CC3CC(C2)CC1C3` (stereo partly drawn) [Example 66, (1S,5R)-3-[5-(2-adamantylcarbamoyl)-6-propylsulfanylpyridin-2-yl]-3-azabicyclo[3.1.0]hexane-6-carboxylic acid], the inhibition at 30 µM is 89%. `O=C(O)CO[C@H]1CCN(c2ccc(C(=O)NC3C4CC5CC(C4)CC3C5)c(SC3CCCC3)n2)C1` (stereo partly drawn) [Example 69, 2-[(3S)-1-[5-(2-adamantylcarbamoyl)-6-cyclopentylsulfanyl-pyridin-2-yl]pyrrolidin-3-yl]oxyacetic acid]: the inhibition at 30 µM was 91%. Regarding `CCCSc1nc(N2CCCC(C)(C(=O)O)C2)ccc1C(=O)NC1CCCCC1` (stereo not shown) [Example 47, 1-[5-(cyclohexylcarbamoyl)-6-propylsulfanyl-pyridin-2-yl]-3-methyl-piperidine-3-carboxylic acid], the inhibition at 30 µM came out at 90%. For the molecule `CCCOc1nc(N2CCCC(C(C)(C)C(=O)O)C2)ccc1C(=O)N[C@H]1C2CC3CC1C[C@](O)(C3)C2` (stereo partly shown) [Example 110, 2-[1-[5-[((2r,5s)-5-hydroxy-2-adamantyl)carbamoyl]-6-propoxy-pyridin-2-yl]-3-piperidyl]-2-methyl-propanoic acid], the inhibition at 30 µM amounted to 95%. With `CCCSc1nc(N2CCCC(OC(C)(C)C(=O)O)C2)ccc1C(=O)NC1CCCCC1` (stereo not shown) [Example 45], the inhibition at 30 µM was 85%. The same measure for `CCCSc1nc(N2CCC(CC(=O)O)CC2)ccc1C(=O)N[C@H]1C2CC3CC1C[C@@](O)(C3)C2` [Example 86, 2-[1-[5-[[(2r,5s)-5-hydroxy-2-adamantyl]carbamoyl]-6-propylsulfanyl-pyridin-2-yl]-4-piperidyl]acetic acid]: 90%.

What is called inhibition is the drop in the measured response relative to a control, in per cent.
